Data published in the kinase profiling compilation of Christmann-Franck et al. (2016).

What was measured:
Experiment in all cases: radiometric filter-binding kinase assay, Kinase HotSpot
Details in all cases: compound 0.5 µM; ATP 10 µM
ABL2 (human) = ABL2 (human) (UniProt P42684)
ACVRL1 (human) = ACVRL1 (human) (UniProt P37023)
AKT1 (human) = AKT1 (human) (UniProt P31749)
AURKB (human) = AURKB (human) (UniProt Q96GD4)
BRSK2 (human) = BRSK2 (human) (UniProt Q8IWQ3)
CDK1 CCNA2 (human) = CDK1 CCNA2 (human) (UniProt P06493+P20248)
CDK2 CCNE1 (human) = CDK2 CCNE1 (human) (UniProt P24941+P24864)
CDK9 CCNT1 (human) = CDK9 CCNT1 (human) (UniProt P50750+O60563)
CLK4 (human) = CLK4 (human) (UniProt Q9HAZ1)
Chain of CLK4 (human) (Q9HAZ1 whole entry, looked up): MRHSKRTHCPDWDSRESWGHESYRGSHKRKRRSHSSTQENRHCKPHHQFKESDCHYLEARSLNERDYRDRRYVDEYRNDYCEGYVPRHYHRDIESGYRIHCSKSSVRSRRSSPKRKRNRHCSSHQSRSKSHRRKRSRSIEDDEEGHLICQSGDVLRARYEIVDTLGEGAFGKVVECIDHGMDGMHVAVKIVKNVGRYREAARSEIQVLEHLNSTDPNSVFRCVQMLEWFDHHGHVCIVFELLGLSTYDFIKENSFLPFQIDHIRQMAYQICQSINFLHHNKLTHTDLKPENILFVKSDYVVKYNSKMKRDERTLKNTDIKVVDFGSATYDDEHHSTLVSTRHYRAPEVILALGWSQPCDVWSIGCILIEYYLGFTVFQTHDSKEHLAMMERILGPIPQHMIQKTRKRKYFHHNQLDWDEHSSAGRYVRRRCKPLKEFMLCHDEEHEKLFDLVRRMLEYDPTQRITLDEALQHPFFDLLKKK

CSNK1A1 (human) = CSNK1A1 (human) (UniProt P48729)
Chain of CSNK1A1 (human) (P48729 whole entry, looked up): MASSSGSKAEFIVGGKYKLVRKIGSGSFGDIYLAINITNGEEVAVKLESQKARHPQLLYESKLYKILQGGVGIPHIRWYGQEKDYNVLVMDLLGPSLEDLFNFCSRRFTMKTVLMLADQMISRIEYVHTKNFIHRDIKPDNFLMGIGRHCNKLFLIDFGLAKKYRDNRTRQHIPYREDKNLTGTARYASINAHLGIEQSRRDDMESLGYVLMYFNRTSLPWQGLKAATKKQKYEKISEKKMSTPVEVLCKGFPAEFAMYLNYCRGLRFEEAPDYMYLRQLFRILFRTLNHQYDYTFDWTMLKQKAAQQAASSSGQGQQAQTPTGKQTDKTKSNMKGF

CSNK1E (human) = CSNK1E (human) (UniProt P49674)
Chain of CSNK1E (human) (P49674 whole entry, looked up): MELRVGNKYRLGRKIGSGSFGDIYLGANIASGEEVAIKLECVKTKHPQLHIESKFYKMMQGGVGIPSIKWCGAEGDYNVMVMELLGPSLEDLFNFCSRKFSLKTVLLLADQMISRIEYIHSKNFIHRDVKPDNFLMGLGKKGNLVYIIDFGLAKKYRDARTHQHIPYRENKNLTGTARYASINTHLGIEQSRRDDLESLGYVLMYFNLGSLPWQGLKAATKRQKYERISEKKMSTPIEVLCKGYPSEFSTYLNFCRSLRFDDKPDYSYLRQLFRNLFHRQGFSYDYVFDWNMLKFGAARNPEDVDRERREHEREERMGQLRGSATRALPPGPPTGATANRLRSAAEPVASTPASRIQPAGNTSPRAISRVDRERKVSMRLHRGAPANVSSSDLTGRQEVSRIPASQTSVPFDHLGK

CSNK1G3 (human) = CSNK1G3 (human) (UniProt Q9Y6M4)
CSNK2A2 (human) = CSNK2A2 (human) (UniProt P19784)
EPHA2 (human) = EPHA2 (human) (UniProt P29317)
EPHB1 (human) = EPHB1 (human) (UniProt P54762)
FLT1 (human) = FLT1 (human) (UniProt P17948)
FLT3 (human) = FLT3 (human) (UniProt P36888)
GRK5 (human) = GRK5 (human) (UniProt P34947)
GRK7 (human) = GRK7 (human) (UniProt Q8WTQ7)
Chain of GRK7 (human) (Q8WTQ7 whole entry, looked up): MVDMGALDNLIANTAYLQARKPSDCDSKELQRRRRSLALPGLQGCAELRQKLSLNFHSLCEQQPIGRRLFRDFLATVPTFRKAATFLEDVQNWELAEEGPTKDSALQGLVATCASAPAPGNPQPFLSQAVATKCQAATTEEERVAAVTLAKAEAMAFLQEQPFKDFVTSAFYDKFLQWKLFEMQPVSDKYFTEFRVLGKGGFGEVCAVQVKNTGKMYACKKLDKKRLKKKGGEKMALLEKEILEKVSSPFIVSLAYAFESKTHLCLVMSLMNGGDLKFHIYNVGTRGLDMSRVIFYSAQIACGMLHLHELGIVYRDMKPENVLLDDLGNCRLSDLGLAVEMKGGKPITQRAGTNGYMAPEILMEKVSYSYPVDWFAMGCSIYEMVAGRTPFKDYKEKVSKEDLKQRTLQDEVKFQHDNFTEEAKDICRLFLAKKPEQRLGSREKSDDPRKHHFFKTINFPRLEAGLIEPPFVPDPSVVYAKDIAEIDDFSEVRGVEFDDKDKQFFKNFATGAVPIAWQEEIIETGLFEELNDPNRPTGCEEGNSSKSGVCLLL

HIPK3 (human) = HIPK3 (human) (UniProt Q9H422)
Chain of HIPK3 (human) (Q9H422 whole entry, looked up): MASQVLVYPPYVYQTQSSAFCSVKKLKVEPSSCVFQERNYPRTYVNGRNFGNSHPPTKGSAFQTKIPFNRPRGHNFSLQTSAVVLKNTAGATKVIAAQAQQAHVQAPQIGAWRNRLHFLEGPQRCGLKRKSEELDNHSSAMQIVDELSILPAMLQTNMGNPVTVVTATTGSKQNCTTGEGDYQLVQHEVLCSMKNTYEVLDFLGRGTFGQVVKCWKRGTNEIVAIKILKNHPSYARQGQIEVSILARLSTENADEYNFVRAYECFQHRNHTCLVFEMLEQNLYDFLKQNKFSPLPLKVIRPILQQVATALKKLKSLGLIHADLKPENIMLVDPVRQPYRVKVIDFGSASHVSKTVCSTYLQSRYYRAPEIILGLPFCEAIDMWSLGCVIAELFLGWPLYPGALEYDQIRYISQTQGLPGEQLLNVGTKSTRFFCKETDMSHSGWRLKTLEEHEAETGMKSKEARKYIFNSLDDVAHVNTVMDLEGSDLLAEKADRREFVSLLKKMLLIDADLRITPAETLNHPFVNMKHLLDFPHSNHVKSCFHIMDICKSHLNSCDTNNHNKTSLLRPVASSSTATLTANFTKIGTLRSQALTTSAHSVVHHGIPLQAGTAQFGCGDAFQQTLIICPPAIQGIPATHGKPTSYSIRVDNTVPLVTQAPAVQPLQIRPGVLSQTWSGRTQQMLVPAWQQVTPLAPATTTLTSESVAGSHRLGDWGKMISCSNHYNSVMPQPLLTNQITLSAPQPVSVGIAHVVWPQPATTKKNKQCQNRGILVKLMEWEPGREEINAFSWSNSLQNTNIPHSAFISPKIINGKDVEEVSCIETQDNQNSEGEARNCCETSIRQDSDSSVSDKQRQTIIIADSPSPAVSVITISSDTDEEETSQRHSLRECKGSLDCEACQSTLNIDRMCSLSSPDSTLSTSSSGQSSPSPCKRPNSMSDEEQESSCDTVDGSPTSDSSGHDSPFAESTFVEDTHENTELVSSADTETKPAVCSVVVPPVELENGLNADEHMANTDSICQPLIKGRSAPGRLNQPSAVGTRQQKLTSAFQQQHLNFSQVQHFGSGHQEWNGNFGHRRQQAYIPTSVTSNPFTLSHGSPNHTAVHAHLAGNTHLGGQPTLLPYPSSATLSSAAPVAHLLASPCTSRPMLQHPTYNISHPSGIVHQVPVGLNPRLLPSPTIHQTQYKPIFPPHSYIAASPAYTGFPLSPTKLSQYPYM

HIPK4 (human) = HIPK4 (human) (UniProt Q8NE63)
KDR (human) = KDR (human) (UniProt P35968)
KIT (human) = KIT (human) (UniProt P10721)
MAPK9 (human) = MAPK9 (human) (UniProt P45984)
MAPKAPK5 (human) = MAPKAPK5 (human) (UniProt Q8IW41)
Chain of MAPKAPK5 (human) (Q8IW41 whole entry, looked up): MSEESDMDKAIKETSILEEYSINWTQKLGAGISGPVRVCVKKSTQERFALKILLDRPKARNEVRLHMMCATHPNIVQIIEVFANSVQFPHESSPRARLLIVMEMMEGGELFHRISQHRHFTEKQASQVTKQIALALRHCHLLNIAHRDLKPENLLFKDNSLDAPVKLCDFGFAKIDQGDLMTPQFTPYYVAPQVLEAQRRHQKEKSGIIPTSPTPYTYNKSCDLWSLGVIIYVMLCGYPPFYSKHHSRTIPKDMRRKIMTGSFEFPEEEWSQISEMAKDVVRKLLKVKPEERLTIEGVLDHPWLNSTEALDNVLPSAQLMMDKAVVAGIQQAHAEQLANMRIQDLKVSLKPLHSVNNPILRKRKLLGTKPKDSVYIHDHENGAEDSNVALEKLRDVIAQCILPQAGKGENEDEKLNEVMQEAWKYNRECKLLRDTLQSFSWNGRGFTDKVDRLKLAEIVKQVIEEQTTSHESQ

MARK2 (human) = MARK2 (human) (UniProt Q7KZI7)
MERTK (human) = MERTK (human) (UniProt Q12866)
MYLK (human) = MYLK (human) (UniProt Q15746)
NEK2 (human) = NEK2 (human) (UniProt P51955)
Chain of NEK2 (human) (P51955 whole entry, looked up): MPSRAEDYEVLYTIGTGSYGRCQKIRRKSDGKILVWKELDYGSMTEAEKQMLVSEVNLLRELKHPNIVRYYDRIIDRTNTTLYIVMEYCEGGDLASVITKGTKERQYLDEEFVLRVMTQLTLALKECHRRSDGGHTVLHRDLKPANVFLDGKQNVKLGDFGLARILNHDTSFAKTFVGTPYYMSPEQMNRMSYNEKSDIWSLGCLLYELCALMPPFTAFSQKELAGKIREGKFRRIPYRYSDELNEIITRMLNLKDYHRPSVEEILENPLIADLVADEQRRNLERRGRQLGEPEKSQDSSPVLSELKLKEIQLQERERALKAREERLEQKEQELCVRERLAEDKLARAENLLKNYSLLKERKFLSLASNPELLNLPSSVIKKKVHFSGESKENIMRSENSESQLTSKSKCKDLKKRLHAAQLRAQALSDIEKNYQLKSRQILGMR

NLK (human) = NLK (human) (UniProt Q9UBE8)
NTRK3 (human) = NTRK3 (human) (UniProt Q16288)
Chain of NTRK3 (human) (Q16288 whole entry, looked up): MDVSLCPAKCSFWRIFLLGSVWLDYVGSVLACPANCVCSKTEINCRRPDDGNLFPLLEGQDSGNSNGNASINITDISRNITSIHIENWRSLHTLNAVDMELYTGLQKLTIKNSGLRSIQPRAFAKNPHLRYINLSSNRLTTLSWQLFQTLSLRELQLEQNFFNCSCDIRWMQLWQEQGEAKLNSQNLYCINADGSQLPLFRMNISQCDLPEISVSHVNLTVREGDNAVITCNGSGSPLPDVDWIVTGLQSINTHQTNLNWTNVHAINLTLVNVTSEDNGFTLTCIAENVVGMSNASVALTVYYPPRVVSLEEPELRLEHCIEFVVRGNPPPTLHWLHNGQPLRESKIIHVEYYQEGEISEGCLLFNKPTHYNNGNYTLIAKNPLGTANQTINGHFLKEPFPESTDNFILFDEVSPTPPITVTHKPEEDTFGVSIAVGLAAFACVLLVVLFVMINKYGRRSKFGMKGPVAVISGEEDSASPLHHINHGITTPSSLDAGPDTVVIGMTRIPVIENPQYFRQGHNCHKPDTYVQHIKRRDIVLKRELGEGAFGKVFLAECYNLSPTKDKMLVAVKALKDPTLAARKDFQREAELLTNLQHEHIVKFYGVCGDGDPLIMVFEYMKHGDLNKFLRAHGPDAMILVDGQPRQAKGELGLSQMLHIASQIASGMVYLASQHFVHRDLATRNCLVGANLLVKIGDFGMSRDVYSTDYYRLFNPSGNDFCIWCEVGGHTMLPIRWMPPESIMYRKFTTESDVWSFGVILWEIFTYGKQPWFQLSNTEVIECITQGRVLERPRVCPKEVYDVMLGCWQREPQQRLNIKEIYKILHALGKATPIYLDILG

NUAK1 (human) = NUAK1 (human) (UniProt O60285)
PIM1 (human) = PIM1 (human) (UniProt P11309)
PRKACA (human) = PRKACA (human) (UniProt P17612)
PRKCB2 (human) = PRKCB2 (human) (UniProt P05771)
PRKCG (human) = PRKCG (human) (UniProt P05129)
ROCK2 (human) = ROCK2 (human) (UniProt O75116)
SRPK3 (human) = SRPK3 (human) (UniProt Q9UPE1)
STK24 (human) = STK24 (human) (UniProt Q9Y6E0)
STK4 (human) = STK4 (human) (UniProt Q13043)
TNK2 (human) = TNK2 (human) (UniProt Q07912)
WNK3 (human) = WNK3 (human) (UniProt Q9BYP7)

SMILES: O=C1NC(=O)c2c1c1c3ccccc3n3c1c1c2c2ccccc2n1C1CCC3O1
- residual activity (ABL2 (human)): 68%
- residual activity (ACVRL1 (human)): 78.6%
- residual activity (AKT1 (human)): 63.9%
- residual activity (AURKB (human)): 9.52%
- residual activity (BRSK2 (human)): 13.6%
- residual activity (CDK1 CCNA2 (human)): 61.7%
- residual activity (CDK2 CCNE1 (human)): 28.5%
- residual activity (CDK9 CCNT1 (human)): 8.52%
- residual activity (CLK4 (human)): 20.3%
- residual activity (CSNK1A1 (human)): 104%
- residual activity (CSNK1E (human)): 47.3%
- residual activity (CSNK1G3 (human)): 108%
- residual activity (CSNK2A2 (human)): 4.47%
- residual activity (EPHA2 (human)): 91.3%
- residual activity (EPHB1 (human)): 80.2%
- residual activity (FLT1 (human)): 13.3%
- residual activity (FLT3 (human)): 0.194%
- residual activity (GRK5 (human)): 88.7%
- residual activity (GRK7 (human)): 53.4%
- residual activity (HIPK3 (human)): 49.9%
- residual activity (HIPK4 (human)): 29.1%
- residual activity (KDR (human)): 4.55%
- residual activity (KIT (human)): 60.8%
- residual activity (MAPK9 (human)): 96.1%
- residual activity (MAPKAPK5 (human)): 80.4%
- residual activity (MARK2 (human)): 4.88%
- residual activity (MERTK (human)): 13.6%
- residual activity (MYLK (human)): 4.01%
- residual activity (NEK2 (human)): 93.8%
- residual activity (NLK (human)): 74.1%
- residual activity (NTRK3 (human)): 1.41%
- residual activity (NUAK1 (human)): 2.09%
- residual activity (PIM1 (human)): 0.435%
- residual activity (PRKACA (human)): 44.7%
- residual activity (PRKCB2 (human)): 6.42%
- residual activity (PRKCG (human)): 32.8%
- residual activity (ROCK2 (human)): 73.7%
- residual activity (SRPK3 (human)): 63.6%
- residual activity (STK24 (human)): 14.3%
- residual activity (STK4 (human)): 3.56%
- residual activity (TNK2 (human)): 2.39%
- residual activity (WNK3 (human)): 86%

SMILES: O=C1Nc2ccc(Cl)cc2/C1=C/c1cc(Cl)c(O)c(Cl)c1
- residual activity (ABL2 (human)): 80.4%
- residual activity (ACVRL1 (human)): 96.4%
- residual activity (AKT1 (human)): 97.9%
- residual activity (AURKB (human)): 9.19%
- residual activity (BRSK2 (human)): 77.2%
- residual activity (CDK1 CCNA2 (human)): 91.9%
- residual activity (CDK2 CCNE1 (human)): 90%
- residual activity (CDK9 CCNT1 (human)): 95.2%
- residual activity (CLK4 (human)): 60.7%
- residual activity (CSNK1A1 (human)): 92.6%
- residual activity (CSNK1E (human)): 66.6%
- residual activity (CSNK1G3 (human)): 93%
- residual activity (CSNK2A2 (human)): 33.3%
- residual activity (EPHA2 (human)): 95%
- residual activity (EPHB1 (human)): 91%
- residual activity (FLT1 (human)): 85%
- residual activity (FLT3 (human)): 26.5%
- residual activity (GRK5 (human)): 95.8%
- residual activity (GRK7 (human)): 97.3%
- residual activity (HIPK3 (human)): 91.5%
- residual activity (HIPK4 (human)): 88.4%
- residual activity (KDR (human)): 86.1%
- residual activity (KIT (human)): 35%
- residual activity (MAPK9 (human)): 100%
- residual activity (MAPKAPK5 (human)): 92.4%
- residual activity (MARK2 (human)): 79.7%
- residual activity (MERTK (human)): 88.4%
- residual activity (MYLK (human)): 62.3%
- residual activity (NEK2 (human)): 86%
- residual activity (NLK (human)): 38.9%
- residual activity (NTRK3 (human)): 44.8%
- residual activity (NUAK1 (human)): 72.5%
- residual activity (PIM1 (human)): 19.4%
- residual activity (PRKACA (human)): 101%
- residual activity (PRKCB2 (human)): 97.5%
- residual activity (ROCK2 (human)): 90.6%
- residual activity (SRPK3 (human)): 88.3%
- residual activity (STK24 (human)): 104%
- residual activity (STK4 (human)): 32.5%
- residual activity (TNK2 (human)): 32.4%
- residual activity (WNK3 (human)): 90.7%

SMILES: CC[n+]1c(/C=C/N(C)c2ccccc2)n(-c2ccccc2)c2ccc(-c3nc4ccccc4s3)cc21
- residual activity (ABL2 (human)): 95.7%
- residual activity (ACVRL1 (human)): 110%
- residual activity (AKT1 (human)): 104%
- residual activity (AURKB (human)): 93.9%
- residual activity (BRSK2 (human)): 95.7%
- residual activity (CDK1 CCNA2 (human)): 98.8%
- residual activity (CDK2 CCNE1 (human)): 92.9%
- residual activity (CDK9 CCNT1 (human)): 89.5%
- residual activity (CLK4 (human)): 95.5%
- residual activity (CSNK1A1 (human)): 106%
- residual activity (CSNK1E (human)): 105%
- residual activity (CSNK1G3 (human)): 92.4%
- residual activity (CSNK2A2 (human)): 105%
- residual activity (EPHA2 (human)): 100%
- residual activity (EPHB1 (human)): 104%
- residual activity (FLT1 (human)): 94.1%
- residual activity (FLT3 (human)): 98.6%
- residual activity (GRK5 (human)): 109%
- residual activity (GRK7 (human)): 100%
- residual activity (HIPK3 (human)): 105%
- residual activity (HIPK4 (human)): 102%
- residual activity (KDR (human)): 93.9%
- residual activity (KIT (human)): 104%
- residual activity (MAPK9 (human)): 94.6%
- residual activity (MAPKAPK5 (human)): 96.8%
- residual activity (MARK2 (human)): 91.6%
- residual activity (MERTK (human)): 96.5%
- residual activity (MYLK (human)): 98.4%
- residual activity (NEK2 (human)): 100%
- residual activity (NLK (human)): 105%
- residual activity (NTRK3 (human)): 100%
- residual activity (NUAK1 (human)): 96.1%
- residual activity (PIM1 (human)): 102%
- residual activity (PRKACA (human)): 103%
- residual activity (PRKCB2 (human)): 118%
- residual activity (PRKCG (human)): 99.4%
- residual activity (ROCK2 (human)): 99.1%
- residual activity (STK24 (human)): 99.2%
- residual activity (STK4 (human)): 98.3%
- residual activity (TNK2 (human)): 98%
- residual activity (WNK3 (human)): 85.9%
